Results as given in patent US12661345B2, “Compositions for the treatment of hypertension” (The George Institute for Global Health, priority 2017, dated 2026).

System: participants with migraine
Assay: Safety: serious adverse events and adverse events of special interest in the 3×3 factorial trial
[1] = Anytime between Week 0 to Week 12, % of participants
[2] = Anytime between Week 0 to Week 12, n/N participants
[3] = Randomization, % of participants
[4] = Randomization, n/N participants

Text: Tolerability: • a. Difference between groups in potentially related side-effects (dizziness, blurred vision, syncope/collapse/fall, ankle edema, skin rash, itching, gout, hyperkalemia, hypokalemia, hyponatremia, myalgia, insomnia, nightmares, rebound hypertension) • b. Difference between groups in participant withdrawals from treatment • 2. Safety: Percentage with any severe adverse event (SAE) • 3.
All participants reported SAEs and adverse events of special interest (AESI) from the time of informed consent until the end of the follow-up period and reported in the case report. AESIs included: • Dizziness • Hypotension • Pedal Edema • Headache • Muscle cramps • Bradycardia • Flushing • Hypersensitivity reactions (skin rashes, itching) • Gastrointestinal complaints • Myalgia • Syncope/Collapse/Fall • Gout • Insomnia • Nightmares • Rebound hypertension • Chest tightness/pain • Tremor/shaking • Irregular heartbeat/tachycardia Statistical Methods Statistical & Analytical Plans

In the case of `CC(C)NCC(O)COc1cccc2ccccc12` (stereo not shown) [Propranolol, propranolol], the “Subjects with any serious adverse event (SAE) in 12 weeks (n/N)” value (12 weeks) is reported as 0/10, the “Subjects with any serious adverse event (SAE) in 12 weeks (percent)” value (12 weeks) is reported as 0.0% and the “Any SAEs” value [1] is reported as “(0.0%)”. The Bradycardia [1] was “(10.0%)”, the Falls [1] was “(0.0%)” and the Flushing [1] was “(0.0%)”. The Gastrointestinal complaints [1] was “(30.0%)”, the Gout [1] was “(0.0%)” and the Headache [1] was “(90.0%)”. For the same compound, the Insomnia [1] was “(40.0%)”, the Muscle cramps [1] was “(30.0%)” and the Myalgia [1] was “(20.0%)”. For the same compound, the Nightmares [1] was “(10.0%)”, the Pedal edema [1] was “(0.0%)” and the Syncope [1] was “(10.0%)”. The “Any SAEs” value [2] was 0/10, the Bradycardia [2] was 1/10 and the Falls [2] was 0/10. For the same compound, the Flushing [2] was 0/10, the Gastrointestinal complaints [2] was 3/10 and the Gout [2] was 0/10. The Headache [2] was 9/10, the Insomnia [2] was 4/10 and the Muscle cramps [2] was 3/10. The Myalgia [2] was 2/10, the Nightmares [2] was 1/10 and the Pedal edema [2] was 0/10. The Syncope [2] was 1/10, the “Any SAEs since the last visit?” value [3] was “(0.0%)” and the Bradycardia [3] was “(0.0%)”. For the same compound, the Falls [3] was “(0.0%)”, the Flushing [3] was “(10.0%)” and the Gastrointestinal complaints [3] was “(0.0%)”. The Gout [3] was “(0.0%)”, the Headache [3] was “(100.0%)” and the Insomnia [3] was “(0.0%)”. For the same compound, the Muscle cramps [3] was “(0.0%)”, the Myalgia [3] was “(0.0%)” and the Nightmares [3] was “(0.0%)”. For the same compound, the Pedal edema [3] was “(0.0%)”, the Syncope [3] was “(0.0%)” and the “Any SAEs since the last visit?” value [4] was 0/10. For the same compound, the Bradycardia [4] was 0/10, the Falls [4] was 0/10 and the Flushing [4] was 1/10. The Gastrointestinal complaints [4] was 0/10, the Gout [4] was 0/10 and the Headache [4] was 10/10. For the same compound, the Insomnia [4] was 0/10, the Muscle cramps [4] was 0/10 and the Myalgia [4] was 0/10. For the same compound, the Nightmares [4] was 0/10, the Pedal edema [4] was 0/10 and the Syncope [4] was 0/10. The “Any SAEs since the last visit?” value (Week 4, % of participants) was “(0.0%)”, the Bradycardia (Week 4, % of participants) was “(0.0%)” and the Falls (Week 4, % of participants) was “(0.0%)”. The Flushing (Week 4, % of participants) was “(0.0%)”, the Gastrointestinal complaints (Week 4, % of participants) was “(20.0%)” and the Gout (Week 4, % of participants) was “(0.0%)”. For the same compound, the Headache (Week 4, % of participants) was “(90.0%)”, the Insomnia (Week 4, % of participants) was “(20.0%)” and the Muscle cramps (Week 4, % of participants) was “(10.0%)”. The Myalgia (Week 4, % of participants) was “(10.0%)”, the Nightmares (Week 4, % of participants) was “(0.0%)” and the Pedal edema (Week 4, % of participants) was “(0.0%)”. For the same compound, the Syncope (Week 4, % of participants) was “(0.0%)”, the “Any SAEs since the last visit?” value (Week 4, n/N participants) was 0/10 and the Bradycardia (Week 4, n/N participants) was 0/10. For the same compound, the Falls (Week 4, n/N participants) was 0/10, the Flushing (Week 4, n/N participants) was 0/10 and the Gastrointestinal complaints (Week 4, n/N participants) was 2/10. For the same compound, the Gout (Week 4, n/N participants) was 0/10, the Headache (Week 4, n/N participants) was 9/10 and the Insomnia (Week 4, n/N participants) was 2/10. For the same compound, the Muscle cramps (Week 4, n/N participants) was 1/10, the Myalgia (Week 4, n/N participants) was 1/10 and the Nightmares (Week 4, n/N participants) was 0/10. For the same compound, the Pedal edema (Week 4, n/N participants) was 0/10, the Syncope (Week 4, n/N participants) was 0/10 and the “Any SAEs since the last visit?” value (Week 8, % of participants) was “(0.0%)”. The Bradycardia (Week 8, % of participants) was “(0.0%)”, the Falls (Week 8, % of participants) was “(0.0%)” and the Flushing (Week 8, % of participants) was “(0.0%)”. For the same compound, the Gastrointestinal complaints (Week 8, % of participants) was “(0.0%)”, the Gout (Week 8, % of participants) was “(0.0%)” and the Headache (Week 8, % of participants) was “(80.0%)”. The Insomnia (Week 8, % of participants) was “(30.0%)”, the Muscle cramps (Week 8, % of participants) was “(0.0%)” and the Myalgia (Week 8, % of participants) was “(10.0%)”. For the same compound, the Nightmares (Week 8, % of participants) was “(0.0%)”, the Pedal edema (Week 8, % of participants) was “(0.0%)” and the Syncope (Week 8, % of participants) was “(0.0%)”. For the same compound, the “Any SAEs since the last visit?” value (Week 8, n/N participants) was 0/10, the Bradycardia (Week 8, n/N participants) was 0/10 and the Falls (Week 8, n/N participants) was 0/10. For the same compound, the Flushing (Week 8, n/N participants) was 0/10, the Gastrointestinal complaints (Week 8, n/N participants) was 0/10 and the Gout (Week 8, n/N participants) was 0/10. The Headache (Week 8, n/N participants) was 8/10, the Insomnia (Week 8, n/N participants) was 3/10 and the Muscle cramps (Week 8, n/N participants) was 0/10. For the same compound, the Myalgia (Week 8, n/N participants) was 1/10, the Nightmares (Week 8, n/N participants) was 0/10 and the Pedal edema (Week 8, n/N participants) was 0/10. The Syncope (Week 8, n/N participants) was 0/10, the “Any SAEs since the last visit?” value (Week 12, % of participants) was “(0.0%)” and the Bradycardia (Week 12, % of participants) was “(10.0%)”. For the same compound, the Falls (Week 12, % of participants) was “(0.0%)”, the Flushing (Week 12, % of participants) was “(0.0%)” and the Gastrointestinal complaints (Week 12, % of participants) was “(10.0%)”. The Gout (Week 12, % of participants) was “(0.0%)”, the Headache (Week 12, % of participants) was “(80.0%)” and the Insomnia (Week 12, % of participants) was “(20.0%)”. The Muscle cramps (Week 12, % of participants) was “(20.0%)”, the Myalgia (Week 12, % of participants) was “(0.0%)” and the Nightmares (Week 12, % of participants) was “(10.0%)”. For the same compound, the Pedal edema (Week 12, % of participants) was “(0.0%)”, the Syncope (Week 12, % of participants) was “(10.0%)” and the “Any SAEs since the last visit?” value (Week 12, n/N participants) was 0/10. The Bradycardia (Week 12, n/N participants) was 1/10, the Falls (Week 12, n/N participants) was 0/10 and the Flushing (Week 12, n/N participants) was 0/10. For the same compound, the Gastrointestinal complaints (Week 12, n/N participants) was 1/10, the Gout (Week 12, n/N participants) was 0/10 and the Headache (Week 12, n/N participants) was 8/10. For the same compound, the Insomnia (Week 12, n/N participants) was 2/10, the Muscle cramps (Week 12, n/N participants) was 2/10 and the Myalgia (Week 12, n/N participants) was 0/10. For the same compound, the Nightmares (Week 12, n/N participants) was 1/10, the Pedal edema (Week 12, n/N participants) was 0/10 and the Syncope (Week 12, n/N participants) was 1/10. The “Any SAEs since the last visit?” value (Week 13, % of participants) was “(0.0%)”, the Bradycardia (Week 13, % of participants) was “(0.0%)” and the Falls (Week 13, % of participants) was “(0.0%)”. For the same compound, the Flushing (Week 13, % of participants) was “(0.0%)”, the Gastrointestinal complaints (Week 13, % of participants) was “(20.0%)” and the Gout (Week 13, % of participants) was “(0.0%)”. For the same compound, the Headache (Week 13, % of participants) was “(90.0%)”, the Insomnia (Week 13, % of participants) was “(0.0%)” and the Muscle cramps (Week 13, % of participants) was “(20.0%)”. For the same compound, the Myalgia (Week 13, % of participants) was “(20.0%)”, the Nightmares (Week 13, % of participants) was “(0.0%)” and the Pedal edema (Week 13, % of participants) was “(10.0%)”. The Rebound hypertension (Week 13, % of participants) was “(0.0%)”, the Syncope (Week 13, % of participants) was “(0.0%)” and the “Any SAEs since the last visit?” value (Week 13, n/N participants) was 0/10. The Bradycardia (Week 13, n/N participants) was 0/10, the Falls (Week 13, n/N participants) was 0/10 and the Flushing (Week 13, n/N participants) was 0/10. The Gastrointestinal complaints (Week 13, n/N participants) was 2/10, the Gout (Week 13, n/N participants) was 0/10 and the Headache (Week 13, n/N participants) was 9/10. For the same compound, the Insomnia (Week 13, n/N participants) was 0/10, the Muscle cramps (Week 13, n/N participants) was 2/10 and the Myalgia (Week 13, n/N participants) was 2/10. For the same compound, the Nightmares (Week 13, n/N participants) was 0/10, the Pedal edema (Week 13, n/N participants) was 1/10 and the Rebound hypertension (Week 13, n/N participants) was 0/10. For the same compound, the Syncope (Week 13, n/N participants) was 0/10, the “Any SAEs since the last visit?” value (Week 16, % of participants) was “(0.0%)” and the Bradycardia (Week 16, % of participants) was “(0.0%)”. The Falls (Week 16, % of participants) was “(0.0%)”, the Flushing (Week 16, % of participants) was “(0.0%)” and the Gastrointestinal complaints (Week 16, % of participants) was “(0.0%)”. For the same compound, the Gout (Week 16, % of participants) was “(0.0%)”, the Headache (Week 16, % of participants) was “(100.0%)” and the Insomnia (Week 16, % of participants) was “(0.0%)”. For the same compound, the Irregular heartbeat/tachycardia (Week 16, % of participants) was “(10.0%)”, the Muscle cramps (Week 16, % of participants) was “(10.0%)” and the Myalgia (Week 16, % of participants) was “(0.0%)”. For the same compound, the Nightmares (Week 16, % of participants) was “(0.0%)”, the Pedal edema (Week 16, % of participants) was “(0.0%)” and the Rebound hypertension (Week 16, % of participants) was “(20.0%)”. For the same compound, the Syncope (Week 16, % of participants) was “(0.0%)”, the “Any SAEs since the last visit?” value (Week 16, n/N participants) was 0/10 and the Bradycardia (Week 16, n/N participants) was 0/10. The Falls (Week 16, n/N participants) was 0/10, the Flushing (Week 16, n/N participants) was 0/10 and the Gastrointestinal complaints (Week 16, n/N participants) was 0/10. The Gout (Week 16, n/N participants) was 0/10, the Headache (Week 16, n/N participants) was 10/10 and the Insomnia (Week 16, n/N participants) was 0/10. The Irregular heartbeat/tachycardia (Week 16, n/N participants) was 1/10, the Muscle cramps (Week 16, n/N participants) was 1/10 and the Myalgia (Week 16, n/N participants) was 0/10. For the same compound, the Nightmares (Week 16, n/N participants) was 0/10, the Pedal edema (Week 16, n/N participants) was 0/10 and the Rebound hypertension (Week 16, n/N participants) was 2/10. For the same compound, the Syncope (Week 16, n/N participants) was 0/10.
